Experiments:
[1] = biological target: beta-glucosidases enzyme from Aspergillus niger (Aspergillus niger, UniProt A2RAL4); details: 100 μM, 1 μM enzyme, 50 Celsius degree, pH 5.5; after instant (less then 5 minutes) incubation
Method: The volume of reaction was set at 500 μl and carried in 2 ml gas tight tubes, shacked constantly at 800 rpm, and the hydrolysis was sampled 100 μl after 5 minutes, 30 minutes and 60 minutes. The hydrolysates were analysed by HPAEC analytics according to Westereng et al. 2013 (vide supra).

[2] = tested on: Ethylene production; assay: Ethylene emanation of Arabidopsis seedlings (ETD 300 detector); assay type: in vivo, Arabidopsis thaliana; details: 100 μM sprayed; 3 weeks in vitro seedlings
Method: Ethylene production was analysed in three independent experiments with the ETD 300 detector (Sensor-Sense, Nijmegen, the Netherlands) under a stop-and-flow routine where the gas from one vial accumulated in an interval of 10 min, and then flushed to the detector. Bars in FIG. 15 represent mean and standard deviation.

Chain of beta-glucosidases enzyme from Aspergillus niger (A2RAL4 20-860): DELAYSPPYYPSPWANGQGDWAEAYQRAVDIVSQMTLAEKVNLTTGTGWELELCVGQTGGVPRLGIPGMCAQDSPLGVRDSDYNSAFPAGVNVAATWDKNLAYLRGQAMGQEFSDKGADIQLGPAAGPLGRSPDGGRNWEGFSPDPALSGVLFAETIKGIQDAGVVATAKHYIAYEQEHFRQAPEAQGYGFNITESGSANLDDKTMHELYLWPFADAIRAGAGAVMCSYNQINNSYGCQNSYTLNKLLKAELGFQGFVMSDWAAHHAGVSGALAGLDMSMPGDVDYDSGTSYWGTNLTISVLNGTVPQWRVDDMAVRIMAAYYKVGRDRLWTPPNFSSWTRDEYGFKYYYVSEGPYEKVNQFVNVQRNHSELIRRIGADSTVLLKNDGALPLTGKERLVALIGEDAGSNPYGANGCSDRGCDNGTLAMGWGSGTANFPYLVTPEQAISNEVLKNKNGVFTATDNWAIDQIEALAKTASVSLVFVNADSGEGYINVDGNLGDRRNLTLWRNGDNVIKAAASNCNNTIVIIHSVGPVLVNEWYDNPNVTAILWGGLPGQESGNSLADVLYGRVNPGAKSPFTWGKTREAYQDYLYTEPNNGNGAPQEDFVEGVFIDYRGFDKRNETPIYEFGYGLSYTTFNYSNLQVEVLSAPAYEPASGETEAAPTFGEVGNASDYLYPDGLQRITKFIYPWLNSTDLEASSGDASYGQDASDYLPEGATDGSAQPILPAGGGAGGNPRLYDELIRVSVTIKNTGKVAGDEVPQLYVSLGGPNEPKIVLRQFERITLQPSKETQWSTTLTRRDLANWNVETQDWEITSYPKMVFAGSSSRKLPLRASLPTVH

Row | Compound | resistance to digestion by beta-glucosidases [1] | Ethylene production versus mock-treated seedlings [2]
1 | O=C1C(CO)OC(OC2C(CO)OC(O)C(O)C2O)C(O)C1O (stereo not drawn) [4-keto-cellobiose] | able to resist the digestion | –
2 | O=C(O)[C@H](O)[C@@H](O)[C@H](O[C@@H]1O[C@H](CO)[C@@H](O)[C@H](O)[C@H]1O)[C@H](O)CO [cellobionic acid, 4-O-β-D-glucopyranosyl-D-gluconic acid] | able to resist the digestion | higher
